Assay results reported in patent US7473790B2 (Pfizer Inc., priority 2003, dated 2009).
pIC50: −log10 of the molar value.

Molecular target: T1, HCV polymerase (Hepatitis C virus genotype 1b, UniProt P26663)
T1 construct: 2.5 pmoles (0.15 μg) HCV polymerase protein in a final volume of 75 μL
Assay: HCV polymerase primer/template-directed transcription assay (32P-GTP incorporation, filter binding)
Format: biochemical
Conditions: for pIC50: recombinant HCV polymerase, 30 minutes at 30° C., concentration giving 50% inhibition of polymerase-directed transcription, read-out: IC50; for inhibition at 20 µM: @ 20 uM compound; for inhibition at 20 µM / inhibition at 50 µM: given where IC50 was impractical to calculate, read-out: percent inhibition; for inhibition at 50 µM: @ 50 uM compound
How it was run: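 IC50s come from triplicate cpm, refit with an enzyme-concentration (30 nM) correction when under 200 nM. Reactions ran 30 min at 30° C in Tris pH 7.2 with MgCl2, 1 μM GTP spiked with α-32P-GTP, biotin-dG12 primer and poly(rC)300 template, with 1% DMSO. Incorporated label was collected on DE filtermats and counted.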

T1 sequence (P26663 2420-3010): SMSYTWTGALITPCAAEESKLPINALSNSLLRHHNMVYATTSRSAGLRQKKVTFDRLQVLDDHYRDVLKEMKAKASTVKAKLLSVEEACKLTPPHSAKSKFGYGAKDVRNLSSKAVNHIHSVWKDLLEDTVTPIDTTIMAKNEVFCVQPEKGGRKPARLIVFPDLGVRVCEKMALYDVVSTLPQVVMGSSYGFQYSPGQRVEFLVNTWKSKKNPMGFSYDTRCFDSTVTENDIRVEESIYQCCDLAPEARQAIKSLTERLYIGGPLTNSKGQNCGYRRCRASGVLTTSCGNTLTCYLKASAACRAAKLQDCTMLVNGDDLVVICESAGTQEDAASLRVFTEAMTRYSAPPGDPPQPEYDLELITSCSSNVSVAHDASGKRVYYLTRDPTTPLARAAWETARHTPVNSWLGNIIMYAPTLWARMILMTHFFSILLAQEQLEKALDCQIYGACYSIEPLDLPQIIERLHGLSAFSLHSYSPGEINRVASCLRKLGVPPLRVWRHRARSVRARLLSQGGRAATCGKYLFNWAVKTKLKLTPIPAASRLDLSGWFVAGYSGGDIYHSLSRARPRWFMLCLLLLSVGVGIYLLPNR

Compound | pIC50 | other results
C[C@@H](O)c1ccc(CCC2(C3CCCC3)CC(=O)CC(=O)O2)cc1F (stereo partly drawn) [B(115), 6-Cyclopentyl-6-{2-[3-fluoro-4-(1-hydroxy-ethyl)-phenyl]-ethyl}-dihydro-pyran-2,4-dione] | 5.48 | 
COc1ccc(CCC2(C3CCCC3)CC(O)=C(Cc3nc4nc(C)cc(C)n4n3)C(=O)O2)c(OC)c1 (stereo not drawn) [B(117), 6-Cyclopentyl-6-[2-(2,4-dimethoxy-phenyl)-ethyl]-3-(5,7-dimethyl-[1,2,4]triazolo[1,5-a]pyrimidin-2-ylmethyl)-4-hydroxy-5,6-dihydro-pyran-2-one] | 6.95 | 
COc1ccc(CCC2(C3CCCC3)CC(O)=C(Cc3nc4ncc(C)cn4n3)C(=O)O2)c(OC)c1 (stereo not drawn) [B(118), 6-Cyclopentyl-6-[2-(2,4-dimethoxy-phenyl)-ethyl]-4-hydroxy-3-(6-methyl-[1,2,4]triazolo[1,5-a]pyrimidin-2-ylmethyl)-5,6-dihydro-pyran-2-one] | 6.70 | 
COc1ccc(CCC2(C3CCCC3)CC(O)=C(Cc3nc4ncc(Cl)cn4n3)C(=O)O2)c(OC)c1 (stereo not drawn) [B(119), 3-(6-Chloro-[1,2,4]triazolo[1,5-a]pyrimidin-2-ylmethyl)-6-cyclopentyl-6-[2-(2,4-dimethoxy-phenyl)-ethyl]-4-hydroxy-5,6-dihydro-pyran-2-one] | 7.15 | 
COc1ccc(CCC2(C3CCCC3)CC(=O)CC(=O)O2)cc1[C@@H](C)O (stereo partly drawn) [B(121), 6-Cyclopentyl-6-{2-[3-(1-hydroxy-ethyl)-4-methoxy-phenyl]-ethyl}-dihydro-pyran-2,4-dione] | 5.22 | 
Cc1cc(C)n2nc(CC3=C(O)CC(CCc4ccc(C5(C)OCCO5)c(Cl)c4)(C4CCCC4)OC3=O)nc2n1 (stereo not drawn) [B(122), 6-{2-[3-Chloro-4-(2-methyl-[1,3]dioxolan-2-yl)-phenyl]-ethyl}-6-cyclopentyl-3-(5,7-dimethyl-[1,2,4]triazolo[1,5-a]pyrimidin-2-ylmethyl)-4-hydroxy-5,6-dihydro-pyran-2-one] | 8.15 | 
CC1(c2ccc(CCC3(C4CCCC4)CC(=O)CC(=O)O3)cc2Cl)OCCO1 (stereo not drawn) [B(123), 6-{2-[3-Chloro-4-(2-methyl-[1,3]dioxolan-2-yl)-phenyl]-ethyl}-6-cyclopentyl-dihydro-pyran-2,4-dione] | 6.24 | 
CC(=O)c1ccc(CCC2(C3CCCC3)CC(O)=C(Cc3nc4nc(C)cc(C)n4n3)C(=O)O2)cc1Cl (stereo not drawn) [B(124), 6-[2-(4-Acetyl-3-chloro-phenyl)-ethyl]-6-cyclopentyl-3-(5,7-dimethyl-[1,2,4]triazolo[1,5-a]pyrimidin-2-ylmethyl)-4-hydroxy-5,6-dihydro-pyran-2-one] | 7.05 | 
Cc1cnc2nc(CC3=C(O)CC(CCc4ccc(C5(C#N)CC5)c(Cl)c4)(C4CCCC4)OC3=O)nn2c1 (stereo not drawn) [B(125), 1-(2-Chloro-4-{2-[2-cyclopentyl-4-hydroxy-5-(6-methyl-[1,2,4]triazolo[1,5-a]pyrimidin-2-ylmethyl)-6-oxo-3,6-dihydro-2H-pyran-2-yl]-ethyl}-phenyl)-cyclopropanecarbonitrile] | 8.40 | 
N#CC1(c2ccc(CCC3(C4CCCC4)CC(O)=C(Cc4nc5ncc(Cl)cn5n4)C(=O)O3)cc2Cl)CC1 (stereo not drawn) [B(126), 1-(2-Chloro-4-{2-[5-(6-chloro-[1,2,4]triazolo[1,5-a]pyrimidin-2-ylmethyl)-2-cyclopentyl-4-hydroxy-6-oxo-3,6-dihydro-2H-pyran-2-yl]-ethyl}-phenyl)-cyclopropanecarbonitrile] | 7.64 | 
CC(C)Oc1ccc(CCC2(C3CCCC3)CC(O)=C(Sc3cccc4cccnc34)C(=O)O2)cc1F (stereo not drawn) [C(01), 6-Cyclopentyl-6-[2-(3-fluoro-4-isopropoxy-phenyl)-ethyl]-4-hydroxy-3-(quinolin-8-ylsulfanyl)-5,6-dihydro-pyran-2-one] | 6.47 | 
CC(C)Oc1ccc(CCC2(C3CCCC3)CC(O)=C(Sc3nc4cc(Cl)ccc4n3C(C)C)C(=O)O2)cc1F (stereo not drawn) [C(02)] | 7.85 | 
COc1ccc(CCC2(C3CCCC3)CC(O)=C(Sc3cccc4cccnc34)C(=O)O2)cc1Cl (stereo not drawn) [C(03), 6-[2-(3-Chloro-4-methoxy-phenyl)-ethyl]-6-cyclopentyl-4-hydroxy-3-(quinolin-8-ylsulfanyl)-5,6-dihydro-pyran-2-one] | 6.30 | 
O=C1OC(CCC2=CCCCC2)(C2CCCC2)CC(O)=C1Sc1nnc(-c2ccncc2)[nH]1 (stereo not drawn) [C(04), 6-(2-Cyclohex-1-enyl-ethyl)-6-cyclopentyl-4-hydroxy-3-(5-pyridin-4-yl-4H-[1,2,4]triazol-3-ylsulfanyl)-5,6-dihydro-pyran-2-one] | 5.74 | 
COc1ccc(CCC2(C3CCCC3)CC(O)=C(Sc3nnc(O)n3C(C)C)C(=O)O2)cc1Cl (stereo not drawn) [C(06), 6-[2-(3-Chloro-4-methoxy-phenyl)-ethyl]-6-cyclopentyl-4-hydroxy-3-(5-hydroxy-4-isopropyl-4H-[1,2,4]triazol-3-ylsulfanyl)-5,6-dihydro-pyran-2-one] | 6.60 | 
Cc1cc(C)n2nc(SC3=C(O)CC(CCc4ccc(OC(C)C)c(F)c4)(C4CCCC4)OC3=O)nc2n1 (stereo not drawn) [C(07), 6-Cyclopentyl-3-(5,7-dimethyl-[1,2,4]triazolo[1,5-a]pyrimidin-2-ylsulfanyl)-6-[2-(3-fluoro-4-isopropoxy-phenyl)-ethyl]-4-hydroxy-5,6-dihydro-pyran-2-one] | 7.72 | 
CC(C)Oc1ccc(CCC2(C3CCCC3)CC(O)=C(Sc3ccc(O)cc3)C(=O)O2)cc1F (stereo not drawn) [C(08), 6-Cyclopentyl-6-[2-(3-fluoro-4-isopropoxy-phenyl)-ethyl]-4-hydroxy-3-(4-hydroxy-phenylsulfanyl)-5,6-dihydro-pyran-2-one] | 6.51 | 
Cc1nnc(SC2=C(O)CC(CCc3ccc(OC(C)C)c(F)c3)(C3CCCC3)OC2=O)s1 (stereo not drawn) [C(09), 6-Cyclopentyl-6-[2-(3-fluoro-4-isopropoxy-phenyl)-ethyl]-4-hydroxy-3-(5-methyl-[1,3,4]thiadiazol-2-ylsulfanyl)-5,6-dihydro-pyran-2-one] | 6.49 | 
COC(=O)c1nnc(SC2=C(O)CC(CCc3ccc(OC(C)C)c(F)c3)(C3CCCC3)OC2=O)n1C (stereo not drawn) [C(10), 5-{6-Cyclopentyl-6-[2-(3-fluoro-4-isopropoxy-phenyl)-ethyl]-4-hydroxy-2-oxo-5,6-dihydro-2H-pyran-3-ylsulfanyl}-4-methyl-4H-[1,2,4]triazole-3-carboxylic acid methyl ester] | 7.80 | 
CC(C)Oc1ccc(CCC2(C3CCCC3)CC(O)=C(Sc3ncccn3)C(=O)O2)cc1F (stereo not drawn) [C(11), 6-Cyclopentyl-6-[2-(3-fluoro-4-isopropoxy-phenyl)-ethyl]-4-hydroxy-3-(pyrimidin-2-ylsulfanyl)-5,6-dihydro-pyran-2-one] | 6.72 | 
CC(C)Oc1ccc(CCC2(C3CCCC3)CC(O)=C(Sc3nnc(O)n3C(C)C)C(=O)O2)cc1F (stereo not drawn) [C(12), 6-Cyclopentyl-6-[2-(3-fluoro-4-isopropoxy-phenyl)-ethyl]-4-hydroxy-3-(5-hydroxy-4-isopropyl-4H-[1,2,4]triazol-3-ylsulfanyl)-5,6-dihydro-pyran-2-one] | 7.09 | 
Cc1cc(C)n2nc(SC3=C(O)CC(CCc4ccc(-c5c(C)noc5C)cc4)(C4CCCC4)OC3=O)nc2n1 (stereo not drawn) [C(13), 6-Cyclopentyl-6-{2-[4-(3,5-dimethyl-isoxazol-4-yl)-phenyl]-ethyl}-3-(5,7-dimethyl-[1,2,4]triazolo[1,5-a]pyrimidin-2-ylsulfanyl)-4-hydroxy-5,6-dihydro-pyran-2-one] | 7.80 | 
Cc1noc(C)c1-c1ccc(CCC2(C3CCCC3)CC(O)=C(Sc3nc4cc(Cl)ccc4n3C)C(=O)O2)cc1 (stereo not drawn) [C(14), 3-(5-Chloro-1-methyl-1H-benzoimidazol-2-ylsulfanyl)-6-cyclopentyl-6-{2-[4-(3,5-dimethyl-isoxazol-4-yl)-phenyl]-ethyl}-4-hydroxy-5,6-dihydro-pyran-2-one] | 7.85 | 
CCC1(CCc2ccc(OC)cc2)CC(O)=C(Sc2nc3cc(Cl)ccc3n2C(C)C)C(=O)O1 (stereo not drawn) [C(15), 3-(5-Chloro-1-isopropyl-1H-benzoimidazol-2-ylsulfanyl)-6-ethyl-4-hydroxy-6-[2-(4-methoxy-phenyl)-ethyl]-5,6-dihydro-pyran-2-one] |  | inhibition at 20 µM: 22%
CCC1(CCc2ccc(OC)cc2)CC(O)=C(Sc2nc3nc(C)cc(C)n3n2)C(=O)O1 (stereo not drawn) [C(16), 3-(5,7-Dimethyl-[1,2,4]triazolo[1,5-a]pyrimidin-2-ylsulfanyl)-6-ethyl-4-hydroxy-6-[2-(4-methoxy-phenyl)-ethyl]-5,6-dihydro-pyran-2-one] |  | inhibition at 20 µM: 8%
Cc1cc(C)n2nc(SC3=C(O)CC(C)(C4CCCC4)OC3=O)nc2n1 (stereo not drawn) [C(17), 6-Cyclopentyl-3-(5,7-dimethyl-[1,2,4]triazolo[1,5-a]pyrimidin-2-ylsulfanyl)-4-hydroxy-6-methyl-5,6-dihydro-pyran-2-one] |  | inhibition at 50 µM: 2%
CCC1(CC)CC(O)=C(Sc2nc3nc(C)cc(C)n3n2)C(=O)O1 [C(18), 3-(5,7-Dimethyl-[1,2,4]triazolo[1,5-a]pyrimidin-2-ylsulfanyl)-6,6-diethyl-4-hydroxy-5,6-dihydro-pyran-2-one] |  | inhibition at 50 µM: 2%
CCC1(CC)CC(O)=C(Sc2nc3cc(Cl)ccc3n2C(C)C)C(=O)O1 [C(19), 3-(5-Chloro-1-isopropyl-1H-benzoimidazol-2-ylsulfanyl)-6,6-diethyl-4-hydroxy-5,6-dihydro-pyran-2-one] |  | inhibition at 50 µM: 22%
CCC1(C)CC(O)=C(Sc2nc3cc(Cl)ccc3n2C(C)C)C(=O)O1 (stereo not drawn) [C(20), 3-(5-Chloro-1-isopropyl-1H-benzoimidazol-2-ylsulfanyl)-6-ethyl-4-hydroxy-6-methyl-5,6-dihydro-pyran-2-one] |  | inhibition at 50 µM: 11%
CCC1(C)CC(O)=C(Sc2nc3nc(C)cc(C)n3n2)C(=O)O1 (stereo not drawn) [C(21), 3-(5,7-Dimethyl-[1,2,4]triazolo[1,5-a]pyrimidin-2-ylsulfanyl)-6-ethyl-4-hydroxy-6-methyl-5,6-dihydro-pyran-2-one] |  | inhibition at 50 µM: 12%
